Laboratory results published in patent US20050282889A1, “Intracorporeal medicaments for photodynamic treatment of disease” (priority 1996, published 2005).

Experiments:
Renal Adenocarcinoma [1] = assay: Intratumoral injection plus light, murine tumor model; format: in vivo; conditions: for No. Tumors Cured: 4 treated
cutaneous lipocytes = assay: Systemic administration to obese mice: accumulation in and photodynamic destruction of cutaneous lipocytes; format: in vivo, obese laboratory mice
From the text: For example, Rose Bengal's relatively large partition coefficient is indicative of a preference for accumulation in lipophilic tissue, such as cutaneous lipocytes.

Escherichia coli = assay: Photodynamic eradication of microbes; format: cell-based; conditions: aqueous solution approximately 1 to 10 micromolar; green light 500-600 nm
thyroid tumor = assay: Intratumoral Rose Bengal plus green light; format: in vivo; conditions: approximately 10% W/V solution i.t.; green light 500-600 nm
cutaneous tumors = assay: Per oesophageal Rose Bengal plus green light, mice with cutaneous tumors; format: in vivo; conditions: approximately 10% W/V solution p.o.; green light 500-600 nm
esophageal tissue = assay: Per oesophageal Rose Bengal plus green light on esophageal tissue; format: in vivo, canines; conditions: approximately 1.0% W/V solution p.o.; green light 500-600 nm
[2] = tested on: Human Breast Adenocarcinoma (MCF-7); assay: Intratumoral injection plus light, murine tumor model; format: in vivo; conditions: i.t. approx. 30 μL 10% solution, tumor 3 × 4 × 4 mm, 100 J/cm^2 532 nm
[3] = Photochemical quantum yields (triplet, singlet oxygen); format: physicochemical
[4] = tested on: procaryotic or eucaryotic cell cultures; assay: Dark and light cytotoxicity in cell cultures; format: cell-based; conditions: concentrations equivalent to or greater than 100 mg/kg
From the text: Further, the inventors of the present invention have shown that these agents are readily cleared from healthy tissues in a matter of several hours and are known to be rapidly excreted in bile, urine and feces, without doing damage to those healthy tissues while it was there.

[5] = Absorbance properties of halogenated xanthenes (λmax, α); format: physicochemical
From the text: Certain general properties of this class of agents are discussed in further detail in U.S. Ser. No. 09/130,041, filed on Aug. 6, 1998, U.S. Ser. No. 09/184,388, filed on Nov. 2, 1998, and U.S. Ser. No. 09/216,787, filed on Dec. 21, 1998, which are herein incorporated by reference in their entirety.

various yeasts = assay: Photodynamic eradication of microbes; format: cell-based; conditions: aqueous solution approximately 1 to 10 micromolar; green light 500-600 nm
prostate tumor = assay: Intratumoral Rose Bengal plus green light; format: in vivo; conditions: approximately 10% W/V solution i.t.; green light 500-600 nm
[6] = Retention of agent after intratumoral or peritumoral injection; conditions: mouse, in vivo
Procedure: Initially, tumor cell suspensions (e.g. melanoma, breast tumor, liver tumor, renal carcinoma, gall bladder tumor or prostate tumor) were injected subcutaneously into the flanks of nude mice resulting in formation of primary tumors, within a few weeks, at the injection site having a volume of approximately 0.1 cm^3 to 0.5 cm^3.

lung tumor = assay: Intratumoral Rose Bengal plus green light; format: in vivo; conditions: approximately 10% W/V solution i.t.; green light 500-600 nm
renal adenocarcinoma [7] = assay: Per oesophageal Rose Bengal plus 532 nm light, murine renal adenocarcinoma tumor model; format: in vivo, Balb C Nude (nu/nu) mice
metastatic breast tumor = assay: Intratumoral Rose Bengal plus green light; format: in vivo; conditions: approximately 10% W/V solution i.t.; green light 500-600 nm
[8] = tested on: tumor cell suspensions (e.g. melanoma, breast tumor, liver tumor, renal carcinoma, gall bladder tumor or prostate tumor); assay: Photodynamic treatment of subcutaneous primary tumors in nude mice; format: in vivo
[9] = Serum level after per oesophageal administration; format: in vivo; conditions: approximately 10% W/V solution p.o.
BNL/SV40 Liver Cell = assay: Intratumoral injection plus light, murine tumor model; format: in vivo; conditions: i.t. approx. 30 μL 10% solution, tumor 8 × 10 × 5 mm, 50 J/cm^2 532 nm
[10] = tested on: antibiotic resistant Staphylococcus aureus; assay: Photodynamic eradication of microbes; format: cell-based; conditions: aqueous solution approximately 1 to 10 micromolar; green light 500-600 nm
[11] = No Light control, 0 J/cm^2, i.t. 10% solution, tumor 2 × 3 × 3 mm
[12] = i.t. approx. 30 μL 10% solution, tumor 2 × 3 × 3 mm, 100 J/cm^2 532 nm
[13] = i.t. approx. 30 μL 10% solution, tumor 5 × 8 × 8 mm, 100 J/cm^2 532 nm

For `O=C1OC2(c3cc(I)c(O)c(I)c3Oc3c2cc(I)c(O)c3I)c2c(Cl)c(Cl)c(Cl)c(Cl)c21` [Rose Bengal, 4,5,6,7-tetrachloro-2′,4′,5′,7′-Tetraiodofluorescein], the “Cure Rate” value (Renal Adenocarcinoma [1]; [11]) was 0%, the “No. Tumors Cured” value (Renal Adenocarcinoma [1]; [11]) was 0 and the “Cure Rate” value (Renal Adenocarcinoma [1]; [12]) was 100%. For the same compound, the “No. Tumors Cured” value (Renal Adenocarcinoma [1]; [12]) was 4, the “Cure Rate” value (Renal Adenocarcinoma [1]; [13]) was 50% and the “No. Tumors Cured” value (Renal Adenocarcinoma [1]; [13]) was 2. For the same compound, the “Tissue accumulation after systemic administration” value (cutaneous lipocytes; aqueous solution i.p. or p.o., cutaneous fat deposits of obese mice) was “highly selective accumulation”, the “Photodynamic effect on lipocytes” value (cutaneous lipocytes; illumination of skin at approximately 532 nm after systemic administration) was “selective photodynamic destruction of such lipocytes with no effect in overlying skin or underlying muscle tissue” and the Eradication of microbes (Escherichia coli) was “substantial or complete eradication”. The Tumor response (thyroid tumor) was “controlled, localized photodynamic eradication”, the Tumor response (cutaneous tumors) was “substantial or complete photodynamic eradication” and the “Tissue response in illuminated region” value (esophageal tissue) was “controlled, localized photodynamic destruction of tissues in the treated region”. For the same compound, the “Cure Rate” value [2] was 100%, the “No. Tumors Cured” value ([2]; 2 treated) was 2 and the “φ (singlet oxygen) EtOH” value ([3]; EtOH) was 0.75. For the same compound, the “φ (singlet oxygen) H2O” value ([3]; H2O) was 0.86, the “φ (singlet oxygen) MeOH” value ([3]; MeOH) was 0.76 and the “φ (triplet) MeOH” value ([3]; MeOH) was 0.76. The “Light cytotoxicity: effect on cell cultures” value ([4]; light between about 500 nm and 600 nm) was “immediate and complete kill”, the “Dark cytotoxicity: effect on viability of cultures” value ([4]; no illumination) was “no measurable effect on the viability” and the α [5] was 100000 L/cm/mol. The “λmax (nm) EtOH” value ([5]; EtOH) was 557 nm, the “λmax (nm) H2O” value ([5]; H2O) was 547 nm and the “λmax (nm) MeOH” value ([5]; MeOH) was 556 nm. The Eradication of microbes (various yeasts) was “substantial or complete eradication”, the Tumor response (prostate tumor) was “controlled, localized photodynamic eradication” and the “Injected dose remaining in the tumor” value [6] was “more than 75%”. For the same compound, the “Tissue localization after i.t. administration” value [6] was “persistent accumulation and retention of Rose Bengal uniformly throughout the tumor volume”, the Tumor response (lung tumor) was “controlled, localized photodynamic eradication” and the “Cure Rate” value (renal adenocarcinoma [7]; 10% solution p.o. approx. 50 mg/kg, 100 J/cm^2 532 nm, latency 3 hr) was 60% (3/5). For the same compound, the “No. Tumors With Positive Response” value (renal adenocarcinoma [7]; 10% solution p.o. approx. 50 mg/kg, 100 J/cm^2 532 nm, latency 3 hr, 5 tumors treated, eschar at tumor site 24 h after illumination) was 3, the “Cure Rate” value (renal adenocarcinoma [7]; 10% solution p.o. approx. 50 mg/kg, 100 J/cm^2 532 nm, latency 20 hr) was 78% (7/9) and the “No. Tumors With Positive Response” value (renal adenocarcinoma [7]; 10% solution p.o. approx. 50 mg/kg, 100 J/cm^2 532 nm, latency 20 hr, 9 tumors treated) was 7. For the same compound, the “Cure Rate” value (renal adenocarcinoma [7]; No Light control, 0 J/cm^2, p.o. approx. 50 mg/kg) was 0% (0/2), the “No. Tumors With Positive Response” value (renal adenocarcinoma [7]; No Light control, 0 J/cm^2, p.o. approx. 50 mg/kg, 2 tumors treated) was 0 and the “Damage in peritumoral tissues” value (renal adenocarcinoma [7]; p.o. approx. 50 mg/kg, tumor and peritumoral area illuminated, 100 J/cm^2 532 nm) was “eschar formation selectively at the tumor site. No damage was noted in peritumoral tissues. “No Light” and”. The Tumor response (metastatic breast tumor) was “controlled, localized photodynamic eradication”, the “Tumor response after p.o. administration and illumination” value ([8]; 10-30 μL of 10% solution (1-3 mg) p.o., 532 nm, 50-200 J/cm^2, 3-48 hours post administration) was “selective destruction of tumor tissue with no substantive effect in healthy surrounding tissue” and the “Tumor response after intratumoral injection and illumination” value ([8]; i.t., similar formulation, light at 532 nm) was “selective tumor destruction”. For the same compound, the “Serum levels of Rose Bengal” value [9] was “transient elevation of serum levels”, the “Cure Rate” value (BNL/SV40 Liver Cell) was 25% and the “No. Tumors Cured” value (BNL/SV40 Liver Cell; 8 treated, reoccurrence at 2-3 weeks) was 2. The Eradication of microbes [10] was “substantial or complete eradication”.
